The test deals with T1, hAhR (Homo sapiens, UniProt P35869).
T1 construct: Stably integrated DRE-luciferase cell lines were generated by transducing the both cell lines with Cignal XRE luciferase reporter (Qiagen) lentiviral particles; endogenous in cells
T1 sequence (P35869 11-848): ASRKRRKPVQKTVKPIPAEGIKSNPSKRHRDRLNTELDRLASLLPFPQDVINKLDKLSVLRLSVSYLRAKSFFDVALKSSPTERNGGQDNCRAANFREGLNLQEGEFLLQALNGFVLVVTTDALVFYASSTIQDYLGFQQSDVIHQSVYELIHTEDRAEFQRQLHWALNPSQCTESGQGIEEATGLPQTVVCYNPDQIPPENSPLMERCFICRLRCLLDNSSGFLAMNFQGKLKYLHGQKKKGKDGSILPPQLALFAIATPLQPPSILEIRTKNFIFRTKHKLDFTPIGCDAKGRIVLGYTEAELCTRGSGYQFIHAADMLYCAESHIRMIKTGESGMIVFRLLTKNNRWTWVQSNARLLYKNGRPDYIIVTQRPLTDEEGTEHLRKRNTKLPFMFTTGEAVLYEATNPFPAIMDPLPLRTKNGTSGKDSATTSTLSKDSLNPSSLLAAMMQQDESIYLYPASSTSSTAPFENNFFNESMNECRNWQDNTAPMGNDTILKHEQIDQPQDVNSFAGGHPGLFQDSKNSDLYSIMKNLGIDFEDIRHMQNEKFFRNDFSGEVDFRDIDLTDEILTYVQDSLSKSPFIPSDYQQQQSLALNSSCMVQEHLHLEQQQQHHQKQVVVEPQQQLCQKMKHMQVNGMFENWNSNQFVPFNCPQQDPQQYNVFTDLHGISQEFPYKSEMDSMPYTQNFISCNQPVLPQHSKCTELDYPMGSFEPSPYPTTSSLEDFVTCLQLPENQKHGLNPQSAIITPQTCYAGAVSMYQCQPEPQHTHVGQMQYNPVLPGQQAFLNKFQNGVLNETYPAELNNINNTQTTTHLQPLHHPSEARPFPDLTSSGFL
The test is described as follows: AhR DRE-luciferase reporter transcriptional assay, antagonist mode (TCDD-induced). In kind it is cell-based. The note with it: HEPG2 DRE-Luc cells, 3 nM TCDD, 24 hour incubation, relative IC50. As for the experimental part:
HEPG2 and HEPA1C1C7 cells were maintained in MEM and αMEM without nucleosides supplemented with 10% heat inactivated FBS respectively. Stably integrated DRE-luciferase cell lines were generated by transducing the both cell lines with Cignal XRE luciferase reporter (Qiagen) lentiviral particles according to the manufacturer protocol. For both cell lines stably integrated reporter cell lines were selected for the presence of 2 µg/mL puromycin. Following selection of stably integrated cell line pools, clonal cell lines were isolated by limiting dilution in 96-well plates. Transcriptional assays were performed by seeding 100 μL of cells at a density of 250,000 or 100,000 cells/mL, for HEPG2 and HEPA1C1C7 DRE-Luc cells respectively, into 96-well cell culture plates in OptiMEM supplemented with 0.5% heat inactivated FBS and allowed to attach overnight. For modulator assays, the compounds were added in a semi-log dose response using a D300e Digital Dispenser (Tecan) followed normalization with vehicle (DMSO). Immediately following compound addition 10 μL of 2,3,7,8-Tetrachlorodibenzo-p-dioxin (TCDD) was added to the cells to a final concentration of 3 nM or 0.3 nM for the HEPG2 and HEPA1C1C7 DRE-Luc cells respectively. Following 24 hour incubation the medium was removed and the cells were lysed in 25 μL of Reporter Lysis Buffer (Promega). Firefly luciferase activity was measured immediately following the addition of 50 μL Luciferase Assay Reagent (Promega). The percent maximal activity for each point was determined using the following equasion: (RLUsample-RLUvehicle−TCDD)/(RLUvehicle+TCDD RLUvehicle−TCDD)*100. The relative IC50, defined as the compound concentration required to reduce the TCDD induced response between the top and bottom plateau of each individual dose response curve by half, for each compound was determined using Prism 7 (GraphPad Software).
(In a reporter assay the amount or activity of a reporter protein is the signal.)

Where only a bound is given, the exact number is not on record here.

As usually defined, the IC50 is the midpoint of a concentration-inhibition curve. Read a high IC50 as weaker potency in that assay.

`Cc1cc(C(=O)N(C)c2ccc(-c3ncc4cc(C(F)(F)F)ccc4n3)cc2C)ccn1` [Example 120, N,2-dimethyl-N-(2-methyl-4-(6-(trifluoromethyl)quinazolin-2-yl)phenyl)isonicotinamide] gave an IC50 of less than 0.2 µM.

Take `Cc1cc(-c2ncc3cc(C(F)(F)F)ccc3n2)ccc1N(C)C(=O)OC(C)(C)C` [Example 009, tert-butyl methyl(2-methyl-4-(6-(trifluoromethyl)quinazolin-2-yl)phenyl)carbamate]: the IC50 was in the range of 0.5 to 1 µM.

Take `C#Cc1ccc2nc(-c3ccc(NC(=O)c4ccnn4C)c(C)c3)ccc2c1` [Example 072, N-(4-(6-ethynylquinolin-2-yl)-2-methylphenyl)-1-methyl-1H-pyrazole-5-carboxamide]: the IC50 was in the range of 0.2 to 0.5 µM.

Compound `Cc1cc(-c2ccc3nc(C(F)(F)F)ccc3n2)ccc1NC(=O)c1ccnn1C` [Example 102, 1-methyl-N-(2-methyl-4-(6-(trifluoromethyl)-1,5-naphthyridin-2-yl)phenyl)-1H-pyrazole-5-carboxamide] came in with a 50% inhibitory concentration (IC50) of less than 0.2 µM.

Turning to `Cc1cc(-c2ncc3nc(C(F)(F)F)cc(C)c3n2)ccc1N(C)C(=O)c1ccnn1C` [Example 148, N,1-Dimethyl-N-(2-methyl-4-(8-methyl-6-(trifluoromethyl)pyrido[3,2-d]pyrimidin-2-yl)phenyl)-1H-pyrazole-5-carboxamide], the IC50 is less than 0.2 µM.

Compound `Cc1cc(-c2ccc3cc(C(F)(F)F)cc(C)c3n2)ccc1N(C)C(=O)c1ccnn1C` [Example 202, N,1-dimethyl-N-(2-methyl-4-(8-methyl-6-(trifluoromethyl)quinolin-2-yl)phenyl)-1H-pyrazole-5-carboxamide] had an IC50 of less than 0.2 µM.

In turn, `Cn1nccc1C(=O)Nc1ccc(-c2ncc3cc(C(F)(F)F)ccc3n2)cc1` [Example 220, 1-methyl-N-(4-(6-(trifluoromethyl)quinazolin-2-yl)phenyl)-1H-pyrazole-5-carboxamide] displayed a concentration for half-maximal inhibition (IC50) of 1 to 10 µM.

Compound `Cc1cc(-c2ncc3nc(C(F)(F)F)cc(C)c3n2)ccc1N(C)C(=O)c1ccnn1CCOP(=O)(O)O` [Example 194, 2-[5-[methyl([2-methyl-4-[8-methyl-6-(trifluoromethyl)pyrido[3,2-d]pyrimidin-2-yl]phenyl])carbamoyl]-1H-pyrazol-1-yl]ethyl disodium phosphate] returned an IC50 of 1 to 10 µM.

Turning to `Cc1cc(-c2ccc3cncc(C)c3n2)ccc1NC(=O)c1ccnn1C` [Example 059, 1-methyl-N-(2-methyl-4-(8-methyl-1,6-naphthyridin-2-yl)phenyl)-1H-pyrazole-5-carboxamide], the IC50 fell in the range of 0.2 to 0.5 µM.

For the compound `Cc1cc(-c2ccc3c(C(F)(F)F)cccc3n2)ccc1NC(=O)c1ccnn1C` [Example 057, 1-methyl-N-(2-methyl-4-(5-(trifluoromethyl)quinolin-2-yl)phenyl)-1H-pyrazole-5-carboxamide], the IC50 lay in the range of 0.2 to 0.5 µM.

With `Cc1c(-c2ncc3cc(C(F)(F)F)ccc3n2)ccc(NC(=O)c2ccnn2C)c1F` [Example 113, N-(2-fluoro-3-methyl-4-(6-(trifluoromethyl)quinazolin-2-yl)phenyl)-1-methyl-1H-pyrazole-5-carboxamide], the IC50 is 0.2 to 0.5 µM.

`COc1cnccc1C(=O)Nc1ccc(-c2ncc3nc(C(F)(F)F)cc(C)c3n2)cc1C` [Example 184, 3-methoxy-N-(2-methyl-4-(8-methyl-6-(trifluoromethyl)pyrido[3,2-d]pyrimidin-2-yl)phenyl)isonicotinamide] had an IC50 of less than 0.2 µM.

For the compound `CC(=O)N(C)c1ccc(-c2ncc3cc(C(F)(F)F)ccc3n2)cc1C` [Example 130, N-methyl-N-(2-methyl-4-(6-(trifluoromethyl)quinazolin-2-yl)phenyl)acetamide], the IC50 is less than 0.2 µM.

Compound `Cc1cc(-c2ccc3cc(C(F)(F)F)ccc3n2)ccc1N(C)C(=O)C(F)(F)F` [Example 081, 2,2,2-Trifluoro-N-methyl-N-(2-methyl-4-(6-(trifluoromethyl)quinolin-2-yl)phenyl)acetamide] yielded a concentration for half-maximal inhibition (IC50) of 1 to 10 µM.

`Cc1cc(-c2ncc3nc(C(F)(F)F)cc(C)c3n2)ccc1N(C)C(=O)c1cc(C(N)=O)nn1CC(N)=O` [Example 196, 1-(2-amino-2-oxoethyl)-N5-methyl-N5-(2-methyl-4-(8-methyl-6-(trifluoromethyl)pyrido[3,2-d]pyrimidin-2-yl)phenyl)-1H-pyrazole-3,5-dicarboxamide] returned an IC50 of 1 to 10 µM.

`Cc1cc(NC(=O)c2ccnn2C)ccc1-c1ccc2cc(F)ccc2n1` [Example 050, N-(4-(6-fluoroquinolin-2-yl)-3-methylphenyl)-1-methyl-1H-pyrazole-5-carboxamide] showed a concentration for half-maximal inhibition (IC50) of 0.5 to 1 µM.

With `Cc1cc(-c2ccc3cc(F)ccc3n2)ccc1NC(=O)c1cnoc1C` [Example 038, N-(4-(6-fluoroquinolin-2-yl)-2-methylphenyl)-5-methylisoxazole-4-carboxamide], the IC50 was in the range of 0.5 to 1 µM.

`Cc1cc(-c2ccc3cnccc3n2)ccc1NC(=O)c1ccnn1C` [Example 013, 1-methyl-N-(2-methyl-4-(1,6-naphthyridin-2-yl)phenyl)-1H-pyrazole-5-carboxamide] came in with a half-maximal inhibitory concentration (IC50) of 1 to 10 µM.

Compound `Cc1cc(-c2ncc3cc(C(F)(F)F)ccc3n2)ccc1NC(=O)c1nn(C)cc1C` [Example 216, 1,4-dimethyl-N-(2-methyl-4-(6-(trifluoromethyl)quinazolin-2-yl)phenyl)-1H-pyrazole-3-carboxamide] showed an IC50 of less than 0.2 µM.

The compound `Cc1cc(-c2ncc3ccn(CC(F)(F)F)c3n2)ccc1NC(=O)c1ccnn1C` [Example 091, 1-Methyl-N-(2-methyl-4-(7-(2,2,2-trifluoroethyl)-7H-pyrrolo[2,3-d]pyrimidin-2-yl)phenyl)-1H-pyrazole-5-carboxamide] had an IC50 of 0.2 to 0.5 µM.

In the case of `CNC(=O)N(C)c1ccc(-c2ncc3cc(C(F)(F)F)ccc3n2)cc1C` [Example 127, 1,3-dimethyl-1-(2-methyl-4-(6-(trifluoromethyl)quinazolin-2-yl)phenyl)urea], the concentration for half-maximal inhibition (IC50) is less than 0.2 µM.

Compound `Cc1cc(-c2ncc3cc(C(F)(F)F)cc(C)c3n2)ccc1NC(=O)c1ccnn1C` [Example 110, 1-methyl-N-(2-methyl-4-(8-methyl-6-(trifluoromethyl)quinazolin-2-yl)phenyl)-1H-pyrazole-5-carboxamide] had a half-inhibitory concentration (IC50) of less than 0.2 µM.

`Cc1cc(C(=O)Nc2ccc(-c3ncc4cc(C(F)(F)F)ccc4n3)cc2C)c(C)cn1` [Example 125, 2,5-dimethyl-N-(2-methyl-4-(6-(trifluoromethyl)quinazolin-2-yl)phenyl)isonicotinamide]: the half-inhibitory concentration (IC50) is less than 0.2 µM.

Regarding `Cc1cc(-c2ccc3cc(F)ccc3n2)cnc1NC(=O)c1ccnn1C` [Example 042, N-(5-(6-fluoroquinolin-2-yl)-3-methylpyridin-2-yl)-1-methyl-1H-pyrazole-5-carboxamide], the 50% inhibitory concentration (IC50) is 0.5 to 1 µM.

With `Cc1cc(-c2ncc3cc(C(F)(F)F)ccc3n2)ccc1NC(=O)c1ncccc1C` [Example 117, 3-methyl-N-(2-methyl-4-(6-(trifluoromethyl)quinazolin-2-yl)phenyl)picolinamide], the half-inhibitory concentration (IC50) was 0.5 to 1 µM.

Turning to `Cn1nccc1C(=O)Nc1ccc(-c2ccc3cc(F)ccc3n2)cc1F` [Example 066, N-(2-fluoro-4-(6-fluoroquinolin-2-yl)phenyl)-1-methyl-1H-pyrazole-5-carboxamide], the half-inhibitory concentration (IC50) fell in the range of 0.5 to 1 µM.

The record behind these values is US20220340875A1, “METHODS OF CULTURING AND/OR EXPANDING STEM CELLS AND/OR LINEAGE COMMITTED PROGENITOR CELLS USING AMIDO COMPOUNDS” (IDEAYA BIOSCIENCES, INC., priority 2018, published 2022).
